From PubChem BioAssay (NCI)
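Five concentrations, 48 hours, 96-well plates. At the TGI there is no net growth.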

What was measured:
Test in all cases: growth of human tumour cells (NCI), 48 h
[1] = system: NCI-H23 lung
[2] = system: HCT-116 colon
[3] = system: UO-31 renal
[4] = system: SK-MEL-28 melanoma
[5] = system: HS 578T breast
[6] = system: HCC-2998 colon
[7] = system: RPMI-8226 leukemia
[8] = system: CAKI-1 renal
[9] = system: MDA-N
[10] = system: A498 renal
[11] = system: SNB-19 CNS
[12] = system: BT-549 breast
[13] = system: HOP-92 NSCLC
[14] = system: IGROV1 ovarian
[15] = system: NCI-H522 lung
[16] = system: U251 CNS
[17] = system: ACHN renal
[18] = system: NCI-H460 lung
[19] = system: SW-620 colon
[20] = system: NCI-H226 lung
[21] = system: RXF 393 renal
[22] = system: MCF7 breast
[23] = system: K-562 leukemia
[24] = system: TK-10 renal
[25] = system: SK-OV-3 ovarian
[26] = system: SK-MEL-5 melanoma
[27] = system: MDA-MB-231 breast
[28] = system: EKVX NSCLC
[29] = system: OVCAR-3 ovarian
[30] = system: DU-145 prostate
[31] = system: OVCAR-8 ovarian
[32] = system: OVCAR-4 ovarian
[33] = system: UACC-257 melanoma
[34] = system: MOLT-4 leukemia
[35] = system: PC-3 prostate
[36] = system: MDA-MB-435
[37] = system: T-47D breast
[38] = system: HOP-62 NSCLC
[39] = system: COLO 205 colon
[40] = system: HT29 colon
[41] = system: SN12C renal
[42] = system: SK-MEL-2 melanoma
[43] = system: 786-0 renal
[44] = system: SF-268 CNS
[45] = system: OVCAR-5 ovarian
[46] = system: HCT-15 colon
[47] = system: M14 melanoma
[48] = system: A549 NSCLC
[49] = system: SF-539 CNS
[50] = system: UACC-62 melanoma
[51] = system: SF-295 CNS
[52] = system: SNB-75 CNS
[53] = system: CCRF-CEM leukemia
[54] = system: HL-60(TB) leukemia
[55] = system: LOX IMVI melanoma
[56] = system: KM12 colon
[57] = system: NCI/ADR-RES ovarian

`C=CCc1ccccc1CC1(OCC)OC(=O)c2ccccc21` (stereo not drawn) was tested, and the TGI [1] was over 100 µM, the TGI [2] was over 100 µM and the TGI [3] was over 100 µM. The TGI [4] was over 100 µM, the TGI [5] was over 100 µM and the TGI [6] was over 100 µM. For the same molecule, the TGI [7] was over 100 µM, the TGI [8] was over 100 µM and the TGI [9] was 71.8 µM. The TGI [10] was over 100 µM, the TGI [11] was over 100 µM and the TGI [12] was over 100 µM. The TGI [13] was over 100 µM, the TGI [14] was over 100 µM and the TGI [15] was over 100 µM. For the same molecule, the TGI [16] was over 100 µM, the TGI [17] was over 100 µM and the TGI [18] was over 100 µM. It also gave a TGI [19] of over 100 µM, a TGI [20] of over 100 µM and a TGI [21] of over 100 µM. It also gave a TGI [22] of over 100 µM, a TGI [23] of over 100 µM and a TGI [24] of over 100 µM. For the same molecule, the TGI [25] was over 100 µM, the TGI [26] was over 100 µM and the TGI [27] was over 100 µM. It also gave a TGI [28] of over 100 µM, a TGI [29] of over 100 µM and a TGI [30] of over 100 µM. For the same molecule, the TGI [31] was over 100 µM, the TGI [32] was over 100 µM and the TGI [33] was over 100 µM. The TGI [34] was over 100 µM, the TGI [35] was over 100 µM and the TGI [36] was 96.9 µM. For the same molecule, the TGI [37] was over 100 µM, the TGI [38] was over 100 µM and the TGI [39] was over 100 µM. It also gave a TGI [40] of over 100 µM, a TGI [41] of over 100 µM and a TGI [42] of over 100 µM. The TGI [43] was over 100 µM, the TGI [44] was over 100 µM and the TGI [45] was over 100 µM. For the same molecule, the TGI [46] was over 100 µM, the TGI [47] was over 100 µM and the TGI [48] was over 100 µM. The TGI [49] was over 100 µM, the TGI [50] was over 100 µM and the TGI [51] was over 100 µM. The TGI [52] was 53.1 µM.
`CC1=C(C(=O)N(C(C)C)C(C)C)CC(C(=O)N(C(C)C)C(C)C)=C(C)N1` was tested, and the TGI [1] was over 100 µM, the TGI [2] was over 100 µM and the TGI [3] was over 100 µM. It also gave a TGI [5] of over 100 µM, a TGI [6] of over 100 µM and a TGI [7] of over 100 µM. It also gave a TGI [8] of over 100 µM, a TGI [53] of over 100 µM and a TGI [9] of over 100 µM. The TGI [10] was over 100 µM, the TGI [11] was over 100 µM and the TGI [12] was over 100 µM. It also gave a TGI [13] of over 100 µM, a TGI [14] of over 100 µM and a TGI [15] of over 100 µM. It also gave a TGI [54] of over 100 µM, a TGI [16] of over 100 µM and a TGI [55] of over 100 µM. It also gave a TGI [17] of over 100 µM, a TGI [18] of over 100 µM and a TGI [19] of over 100 µM. For the same molecule, the TGI [20] was over 100 µM, the TGI [21] was over 100 µM and the TGI [22] was over 100 µM. It also gave a TGI [23] of over 100 µM, a TGI [24] of over 100 µM and a TGI [25] of over 100 µM. For the same molecule, the TGI [26] was over 100 µM, the TGI [27] was over 100 µM and the TGI [28] was over 100 µM. For the same molecule, the TGI [29] was over 100 µM, the TGI [30] was over 100 µM and the TGI [31] was over 100 µM. For the same molecule, the TGI [32] was over 100 µM, the TGI [56] was over 100 µM and the TGI [33] was over 100 µM. The TGI [34] was over 100 µM, the TGI [35] was over 100 µM and the TGI [36] was over 100 µM. It also gave a TGI [37] of over 100 µM, a TGI [38] of over 100 µM and a TGI [39] of over 100 µM. For the same molecule, the TGI [40] was over 100 µM, the TGI [41] was over 100 µM and the TGI [42] was over 100 µM. It also gave a TGI [43] of over 100 µM, a TGI [44] of over 100 µM and a TGI [45] of over 100 µM. It also gave a TGI [46] of over 100 µM, a TGI [47] of over 100 µM and a TGI [57] of over 100 µM. It also gave a TGI [48] of over 100 µM, a TGI [49] of over 100 µM and a TGI [50] of over 100 µM. For the same molecule, the TGI [51] was over 100 µM and the TGI [52] was over 100 µM.
